Test results from publication PMC7496931, “Activation of Sirtuin 2 Inhibitors Employing Photoswitchable Geometry and Aqueous Solubility” (Chemmedchem, 2020).

Columns and labels:
Sirt2 = target: T1, Sirt2 (Homo sapiens, UniProt Q8IXJ6); assay: FP-based binding assay (competition with fluorescently labelled SirReal probe); design: key to Sirt2 inhibition FP-Assay (class): n.i. = no inhibition detected
T1 construct: Expression and purification of Sirt1_133−747, Sirt2_56−356, and Sirt3_118−395 was carried out as described previously; made in house
T1 sequence (Q8IXJ6 56-356): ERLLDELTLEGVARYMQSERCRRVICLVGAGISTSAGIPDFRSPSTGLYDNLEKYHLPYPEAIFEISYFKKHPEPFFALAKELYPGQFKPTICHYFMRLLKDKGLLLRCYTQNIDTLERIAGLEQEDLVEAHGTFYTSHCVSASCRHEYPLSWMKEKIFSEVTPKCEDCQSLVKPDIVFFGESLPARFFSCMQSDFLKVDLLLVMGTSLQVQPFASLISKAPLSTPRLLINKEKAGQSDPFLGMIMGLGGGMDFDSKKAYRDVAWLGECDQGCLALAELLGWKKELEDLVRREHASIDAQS
Description: This conformational change is also observed upon binding of numerous other compounds as myristoylated substrates, for instance.23 A recently developed fluorescence polarization (FP)‐based binding assay was utilized to determine whether our compounds are able to prevent binding of a fluorescently labelled SirReal to the catalytic core of Sirt2.7 Serendipitously, competition with the fluorescent probe could be confirmed for 7 f (Table S3). […] Therefore, this scaffold seemed to be a promising structure for further derivatization. […]
yielding the percentage substrate conversion. Comparison of the determined substrate conversion with a no-inhibition DMSO control yields the percentage inhibition at the respective […]
For determination of IC50, inhibitory activity of the respective compound was determined at 8 to 10 distinct concentrations. The measured values were analysed by a non-linear fit to the dose-response curve using a four parameter logistic model (Figure S6):
Figure S6: Non-linear regression of the dose-response curves of compounds 15c and 15f at the thermal equilibrium (∆, black) and after 5 minutes of 365 nm irradiation (red). […]
before 5 µL of the solution of 21 (40 nM final assay concentration) were added. After further 30 min of incubation at 37 °C the fluorescence intensities were recorded with an EnVisionTM plate reader (PerkinElmer) with the following settings: optical module – BODIPY TMR FP, excitation filter – FP 531 nm, emission filter 1 – FP p-pol 595 nm, emission filter 2 – FP s-pol 595 nm. Fluorescence polarization (P) values were determined as […] (mP), […]
where Is/IP are the fluorescence intensities measured in the s- and the p-plane respectively, both blank corrected. […] Inhibition was calculated from fluorescence polarization in relation to the maximal polarization and minimal […]
Table S3: Compounds 7c, 7f and 9a examined in the FP-based binding assay and in the ZMAL activity assay. Inhibition of Sirt2 in the FP-based binding assay indicates displacement of the fluorescence-labelled SirReal probe and implies a similar binding mode. […]

[1] = UV/Vis spectra and half-life of thermal Z→E isomerization; format: physicochemical; design: k of thermal Z→E isomerization (non-linear regression): unit not given here
Protocol: Photochemistry: All photoisomerization experiments were conducted under ruby light of 630 nm and total exclusion of daylight. Illumination was executed using a Bio‐Link 254 Crosslinker from Vilber‐Lourmat equipped with six Vilber‐Lourmat T8‐L lamps (8 W, 365 nm). Visible light radiation of 630 nm (ruby) and 452 nm (blue) was derived from a Paulmann FlexLED 3D strip. All compounds were irradiated in solution using spectrophotometric grade solvents. Photoisomerization and UV/Vis‐spectra measurement was conducted in quartz glass cuvettes (114‐QS, Hellma Analytics) at room temperature.
UV/Vis Spectra and Half-Life of Thermal Isomerization
The half-life of the thermal Z→E isomerization after 5 minutes of 365 nm irradiation was determined by UV/Vis-spectroscopy. Therefore, solutions of the respective compounds (50 µM) in 5%, 50% or 90% DMSO in enzyme assay buffer (v/v) were prepared. An initial spectrum of the thermal equilibrium was recorded. After 5 minutes of irradiation with 365 nm the increase of absorbance at the thermal equilibrium maximum (λ∆max) was recorded as exemplified by compound 15c (Figure S3). Absorbance at λ = λ ∆max was plotted as a function of time. Non-linear regression yielded the half-life of the thermal Z→E isomerization (Table S1). For extrapolation of the reaction kinetics, the plateau value was set to the initial absorbance at λ=λ∆max. The following equation was used for non-linear regression:
y = (y0 − Plateau)e−kx + Plateau
Figure S3: Left: UV-Vis spectrum of 15c (50 µM) in assay buffer (5% DMSO, v/v) at the thermal equilibrium (∆) and the photostationary state (PSS) after UV irradiation (365 nm). Right:
Absorbance of 15c (50 µm) in assay buffer (5% DMSO, v/v) at λ∆max = 328 nm after 5 minutes of UV (365 nm) irradiation.
(1 picture or pasted object on this page, not shown here)

Row | Structure (SMILES) | inhibition at 10 µM (Sirt2; @ 10 µM, read-out: Sirt2 inhibition FP-Assay, % inhibition of binding of the fluorescent probe) | melting point | Sirt2 inhibition FP-Assay (class) (Sirt2) | λΔ/max absorption maximum at thermal equilibrium ([1]; 50 μM in DMSO/assay buffer, 5 % DMSO (v/v)) | k of thermal Z→E isomerization (non-linear regression) ([1]; 50 μM, 5 % DMSO (v/v) in assay buffer) | inhibition at 100 µM (Sirt2; @ 100 µM, read-out: Sirt2 inhibition FP-Assay, % inhibition of binding of the fluorescent probe)
1 | Cc1cc(/N=N/c2cncc(C(N)=O)c2)cc(C)c1N [7 f] | 46% | 255 °C |  |  |  | 
2 | NC(=O)c1cncc(/N=N/c2c(O)ccc3ccccc23)c1 [7 c] |  | 260 °C | n.i. |  |  | 
3 | CC(=O)Nc1c(C)cc(/N=N/c2cncc(C(N)=O)c2)cc1C [9 a] |  |  |  | 329 nm | 0.1176 | 69%
